Reference: patent US9675615B2, “2,3-dihydroquinazolin-4(1H)-one derivatives for use in the treatment of viral infections” (priority 2012, dated 2017)
Read-outs that look alike come from different tables or passages of the source.

What was measured:
[1] = test system: recombinant Ebolavirus that encodes green fluorescent protein; assay: microbe, parasite or virus in culture; format: cell-based; details: read-out: IC50 (concentration that results in 50% inhibition of infection)
Ebolavirus = details: cited from earlier work
filoviruses = details: cited from earlier work

Structure (SMILES) | IC50 ([1]; Orthoebolavirus, HeLa) | also measured
Cc1ccc(C2Nc3ccccc3C(=O)N2c2ccccc2)s1 (centres unmarked) [Retro-2^cycl, reference compound] | – | IC50 [1]: 42.5 µM
C[C@H]1CCC/C=C/[C@@H]2C[C@H](O)C[C@H]2[C@H](O)/C=C/C(=O)O1 [Brefeldin A] | – | effect on Ebolavirus infectivity (Ebolavirus): loss of infectivity
O=C1c2ccccc2NC(c2ccc(-c3ccccn3)s2)N1c1ccccc1 (centres unmarked) [Compound 19, 3-Phenyl-2-(5-(pyridin-2-yl)thiophen-2-yl)-2,3-dihydroquinazolin-4(1H)-one] | 5.6 µM | –
Cc1nc(-c2ccc(C3Nc4ccccc4C(=O)N3c3ccccc3)s2)cs1 (centres unmarked) [Compound 21, 2-(5-(2-Methylthiazol-4-yl)thiophen-2-yl)-3-phenyl-2,3-dihydroquinazolin-4(1H)-one] | 2.3 µM | –
O=C1c2ccccc2NC(c2ccc(-c3ccco3)s2)N1c1ccccc1 (centres unmarked) [Compound 20, 2-(5-(Furan-2-yl)thiophen-2-yl)-3-phenyl-2,3-dihydroquinazolin-4(1H)-one] | 5.4 µM | –
NC(=O)c1ncn([C@@H]2O[C@H](CO)[C@@H](O)[C@H]2O)n1 [ribavirin] | – | efficacy against filoviruses (filoviruses): ineffective
O=C1c2ccccc2NC(c2ccc(-c3ccccc3)s2)N1c1ccccc1 (centres unmarked) [Compound 13, 3-Phenyl-2-(5-phenylthiophen-2-yl)-2,3-dihydroquinazolin-4(1H)-one] | 4.2 µM | –
CSc1ccc(C2Nc3ccccc3C(=O)N2c2ccccc2)s1 (centres unmarked) [Compound 17, 2-(5-(Methylthio)thiophen-2-yl)-3-phenyl-2,3-dihydroquinazolin-4(1H)-one] | 7.4 µM | –
CCc1ccc(C2Nc3ccccc3C(=O)N2c2ccccc2)s1 (centres unmarked) [Compound 7, 2-(5-Ethylthiophen-2-yl)-3-phenyl-2,3-dihydroquinazolin-4(1H)-one] | 11 µM | –
O=C1c2ccccc2NC(c2ccc(-c3cccs3)s2)N1c1ccccc1 (centres unmarked) [Compound 18, 2-([2,2′-Bithiophen]-5-yl)-3-phenyl-2,3-dihydroquinazolin-4(1H)-one] | 4.7 µM | –
CC(Cc1ccc(O)c(O)c1)C(C)Cc1ccc(O)c(O)c1 (centres unmarked) [NDGA] | – | effect on Ebolavirus infectivity (Ebolavirus): loss of infectivity
